Measured values published in US20130344026A1, “Dimeric Smac Mimetics” (priority 2009, published 2013).
Where two headings read alike, the source gives them in different places.

Assays:
HCC461 = assay: cell viability assay in HCC461, compound alone; assay type: cell-based
PANC-1 cells = assay: cell viability assay in PANC-1 cells (compound alone, + 100 ng/ml TNFa, + 300 ng/ml TRAIL); assay type: cell-based
[1] = HCC461, HCC461 cells, compound alone, read-out: IC50 (uM) in cell viability assay in HCC461
[2] = HCC461, HCC461, Tables 6-9, read-out: IC50 (μM) in cell viability assay in HCC461
[3] = Homo sapiens, PANC-1, compound alone, Tables 6-10, read-out: IC50 (μM) in cell viability assay in PANC-1 cells: Compound alone
[4] = with 100 ng/ml TNFa, Tables 6-10, read-out: IC50 (μM) in cell viability assay in PANC-1 cells: Compound + 100 ng/ml TNFa
[5] = with 300 ng/ml TRAIL, Tables 6-10, read-out: IC50 (μM) in cell viability assay in PANC-1 cells: Compound + 300 ng/ml TRAIL
[6] = Homo sapiens, PANC-1, compound alone, Tables 15-18, read-out: IC50 (uM) in cell viability assay in PANC-1 cells: Cmpnd alone
[7] = with 100 ng/ml TNFa, Tables 15-18, read-out: IC50 (uM) in cell viability assay in PANC-1 cells: Cmpnd + 100 ng/ml TNFa
[8] = with 300 ng/ml TRAIL, Tables 15-18, read-out: IC50 (uM) in cell viability assay in PANC-1 cells: Cmpnd + 300 ng/ml TRAIL

Row | IC50 (PANC-1 cells; [3]) | IC50 (PANC-1 cells; [4]) | IC50 (PANC-1 cells; [5]) | SMILES | also measured
1 | – | – | – | CN[C@@H](C)C(=O)N[C@H](C(=O)N1C[C@@H](NC(=O)c2cccc(C(=O)N[C@H]3C[C@@H](C(=O)Nc4cccc5c4CCCC5)N(C(=O)[C@@H](NC(=O)[C@H](C)NC)C(C)(C)C)C3)c2)C[C@H]1C(=O)Nc1cccc2c1CCCC2)C(C)(C)C [Compound P3-45] | IC50 (HCC461; [1]): 0.181 µM
2 | – | – | – | CN[C@@H](C)C(=O)N[C@H](C(=O)N1C[C@@H](NC(=O)c2cnc(C(=O)N[C@H]3C[C@@H](C(=O)N[C@@H]4CCCc5ccccc54)N(C(=O)[C@@H](NC(=O)[C@H](C)NC)C(C)(C)C)C3)cn2)C[C@H]1C(=O)N[C@@H]1CCCc2ccccc21)C(C)(C)C [Compound P3-13] | IC50 (HCC461; [1]): 0.028 µM
3 | – | – | – | CN[C@@H](C)C(=O)N[C@@H](CCCCNC(=O)c1cccc(C(=O)N[C@H]2CCN(C(=O)[C@@H](NC(=O)[C@H](C)NC)C(C)(C)C)C2)c1)C(=O)N1CCC[C@H]1C(=O)N[C@@H]1CCCc2ccccc21 [Compound 135] | IC50 (HCC461; [2]): 12.1 µM
4 | – | – | – | CC[C@H](NC(=O)[C@H](C)NC)C(C)N[C@@H](CNC(=O)c1cccc(C(=O)N[C@H]2C[C@@H](C(=O)N[C@@H]3CCCc4ccccc43)N(C(=O)[C@@H](NC(=O)[C@H](C)NC)C(C)(C)C)C2)c1)C(=O)N[C@H](C)C(C)C (some centres unmarked) [Compound 137] | IC50 (HCC461; [2]): 6.97 µM
5 | – | – | – | CN[C@@H](C)C(=O)N[C@H](C(=O)N1CCC[C@H]1C(=O)N[C@H](CNC(=O)C1CCCC(C(=O)NC[C@@H](NC(=O)[C@@H]2CCCN2C(=O)[C@@H](NC(=O)[C@H](C)NC)C(C)(C)C)C2CCCCC2)C1)C1CCCCC1)C(C)(C)C (single isomer, unassigned) [Compound P4-5] | IC50 (HCC461; HCC461, Tables 15-18, read-out: IC50 (uM) in cell viability assay in HCC461): 0.011 µM
6 | > 1 µM | 0.046 µM | 0.084 µM | CN[C@@H](C)C(=O)N[C@@H](CC(=O)NCC[C@H](NC(=O)[C@@H](NC(=O)[C@H](C)NC)C(C)(C)C)C(=O)N[C@@H]1CCCc2ccccc21)C(=O)N1CCC[C@H]1C(=O)N[C@@H]1CCCc2ccccc21 [Compound 200] | –
7 | > 1 µM | 0.215 µM | 0.198 µM | CN[C@@H](C)C(=O)N[C@H](C(=O)N1C[C@@H](NC(=O)c2cccc(C(=O)N[C@H]3C[C@@H](C(=O)N[C@@H]4CCCc5ccc(OC)cc54)N(C(=O)[C@@H](NC(=O)[C@H](C)NC)C(C)(C)C)C3)c2)C[C@H]1C(=O)N[C@@H]1CCCc2ccc(OC)cc21)C(C)(C)C [Compound 44] | –
8 | – | – | – | CN[C@@H](C)C(=O)N[C@H](C(=O)N1CCC[C@H]1CN(CCCCCCN(CCc1ccccc1)C[C@@H]1CCCN1C(=O)[C@@H](NC(=O)[C@H](C)NC)C(C)(C)C)CCc1ccccc1)C(C)(C)C [Compound P4-22] | IC50 (PANC-1 cells; [6]): > 1 µM; IC50 (PANC-1 cells; [7]): 0.022 µM; IC50 (PANC-1 cells; [8]): 0.04 µM
9 | > 1 µM | 0.392 µM | 0.564 µM | CN[C@@H](C)C(=O)NC(C(=O)N[C@@H](CCNC(=O)CCc1cn([C@H]2C[C@@H](C(=O)N[C@@H]3CCCc4ccccc43)N(C(=O)[C@@H](NC(=O)[C@H](C)NC)C3CCCCC3)C2)nn1)C(=O)N[C@H](C)C(C)C)C(C)C (some centres unmarked) [Compound 204] | –
10 | > 1 µM | 0.994 µM | > 1 µM | CN[C@@H](C)C(=O)N[C@H](C(=O)N[C@@H](CCNC(=O)CC[C@H](NC(=O)[C@@H](NC(=O)[C@H](C)NC)C(C)(C)C)C(=O)N[C@@H]1CCCc2ccccc21)C(=O)N[C@H](C)C(C)C)C(C)C [Compound 166] | –
11 | – | – | – | CN[C@@H](C)C(=O)NC(CCC(=O)Nc1ccc(CCc2ccc(NC(=O)CCC(NC(=O)[C@H](C)NC)C(=O)N3CCC[C@H]3C(=O)N[C@@H]3CCCc4ccccc43)cc2)cc1)C(=O)N1CCC[C@H]1C(=O)NC1CCCc2ccccc21 (some centres unmarked) [Compound P2-45] | IC50 (PANC-1 cells; [6]): > 1 µM; IC50 (PANC-1 cells; [7]): 0.002 µM; IC50 (PANC-1 cells; [8]): 0.004 µM
12 | – | – | – | CN[C@@H](C)C(=O)N[C@H](C(=O)N1C[C@@H](NC(=O)C2CCCC(C(=O)N[C@H]3C[C@@H](C(=O)N[C@H](C)c4ccccc4)N(C(=O)[C@@H](NC(=O)[C@H](C)NC)C(C)(C)C)C3)C2)C[C@H]1C(=O)N[C@H](C)c1ccccc1)C(C)(C)C (some centres unmarked) [Compound P3-102] | IC50 (PANC-1 cells; PANC-1 cells, + 100 ng/ml TNFa, read-out: IC50 (uM) in cell viability assay in PANC-1 cells, Cmpnd + 100 ng/ml TNFa): 0.017 µM; IC50 (PANC-1 cells; PANC-1 cells, + 300 ng/ml TRAIL, read-out: IC50 (uM) in cell viability assay in PANC-1 cells, Cmpnd + 300 ng/ml TRAIL): 0.023 µM; IC50 (PANC-1 cells; PANC-1 cells, compound alone, read-out: IC50 (uM) in cell viability assay in PANC-1 cells, Cmpnd alone): > 1 µM

Row | SMILES | IC50 (PANC-1 cells; [3]) | IC50 (PANC-1 cells; [4]) | IC50 (PANC-1 cells; [5]) | also measured
13 | CN[C@@H](C)C(=O)N[C@H](C(=O)N1CCC[C@H]1C(=O)N[C@H]1c2ccccc2C[C@@H]1NC(=O)CCCCC(=O)N[C@H]1Cc2ccccc2[C@@H]1NC(=O)[C@@H]1CCCN1C(=O)[C@@H](NC(=O)[C@H](C)NC)C(C)(C)C)C(C)(C)C [Compound 123] | > 1 µM | 0.069 µM | 0.067 µM | –
14 | CN[C@@H](C)C(=O)N[C@@H](CCCCCC[C@H](NC(=O)[C@H](C)NC)C(=O)N1CCC[C@H]1CNC(=O)c1cnccn1)C(=O)N1CCC[C@H]1CNC(=O)c1cnccn1 [Compound 30] | > 1 µM | > 1 µM | > 1 µM | –
